According to US20240285723A1, “COMBINATION COMPOSITIONS FOR THE TREATMENT OF PATHOGEN INFECTIONS AND ASSOCIATED COMPLICATIONS” (priority 2021, published 2024):
Where no end group is shown, it is not given here.

What was measured:
LPS-injected mice = assay: LPS-induced septic shock mouse model: survival and murine sepsis score (MSS); format: in vivo; conditions: for disease progression (MSS), compound alone / survival (MSS<3), compound alone: BCP 25 mg/kg or pregnenolone 10 mg/kg i.p. every 12 hrs from 24 h before LPS, n=7
Experimental: Male wild type 8-10 weeks old mice of inbred strain C57BL/6J-RCC were obtained from Envigo Ltd. All experiments were in accordance and with the approval of the institutional animal care and use committee of Tel-Aviv University for these experiments (permit number 01-20-022). The mice were divided into treatment groups 24 hours before LPS administration. All treatments were administered intraperitoneally (IP). OGP was administered at the indicated doses only twice, 24 hrs before LPS and right before the LPS at a dose of 0.5, 5 or 15 μg/kg. Olorinab was administered at 0.33, 1, or 5 mg/kg twice a day starting 24 hours before LPS. DHEA was injected once a day at a dose of 30 mg/kg, starting 24 hr before LPS injection. β-Caryophyllene (BCP or BCP, used herein interchangeably) and Pregnenolone were injected every 12 hours starting 24 h before the LPS injection. A single IP injection of LPS was administered at 25 μg/gr dose. This study had 2 control groups as indicated in the experiments below. One that received PBS instead of the LPS injection (‘PBS’), and one that received PBS instead of the treatments (CB2 agonist or steroid) before the LPS injection (‘LPS’). For humane reasons murine sepsis score (MSS) was used as a surrogate for survival (Mai et al. Intensive Care Med Exp, 2018 Jul. 27; 6(1):20. doi: 10.1186/s40635-018-0184-3). A low MSS score (0-2) served as a surrogate for survival while mice that reached the score 3 were defined as critically ill and were euthanized.
Statistical analyses—For survival experiments, Gehan-Breslow-Wilcoxon test was used for multiple groups comparison. For disease progression Dunnett's multiple comparisons test was used. Differences between groups were considered significant when P<0.05.
A dose response experiment was conducted to test the potential effect of 5aa-OGP in the sepsis model (FIG. 1A). A single injection of 5aa-OGP was administered i.p. at 3 different doses, 0.5 μg/kg, 5 μg/kg and 15 μg/kg, 24 hours prior to the LPS injection; these concentrations were chosen based on the previous works in the lab.
In a separate experiment, mice received a single i.p. injection of the optimal dose of 5aa-OGP (5 μg/kg) and 24 hours later were intraperitoneal (i.p) injected with a lethal dose of LPS. Control mice received a single PBS injection 24 hours prior to LPS injection.
In order to test the therapeutic potential of another CB2 agonist, olorinab was tested in improving survival rate in a mouse model of septic shock induced by LPS injection. Olorinab was administered i.p. 24 hours prior to LPS injection followed by twice-daily injections of olorinab.
The combinations DHEA+olorinab and DHEA+5aa-OGP were tested versus each compound alone and versus vehicle only (no treatment) in LPS-injected mice. The mice received the first dose of treatment 24 hr before LPS injection in the treated groups. All the injections were given i.p., olorinab doses were administered twice a day, DHEA and 5aa-OGP were administered once a day. LPS was given only once.
The combination BCP+Pregnenolone was tested versus each compound alone and versus vehicle only (no treatment) in LPS-injected mice. Mice were pre-treated with ß-Caryophyllene (BCP. 25 mg/kg) and pregnenolone (Preg, 10 mg/kg), separately (FIG. 4A) and in combination 24 and 12 hrs before LPS injection (25 mg/kg) and then every 12 hrs. All the injections were given i.p., twice a day. LPS was given only once. A Murine Septic Score (MSS) was recorded every 12 hours (FIGS. 4A and 4C). Survival (FIGS. 4B and 4D) was defined as MSS<3. * P<0.05, n=7.

polymicrobial sepsis = conditions: mice; Oberbeck et al. 2001; cited from earlier work
[1] = system: patients with dcSSc or dermatomyositis; conditions: Phase II; dcSSc and dermatomyositis with active skin involvement; cited from earlier work
COVID-19 patients = COVID-19 patients who did not require oxygen; cited from earlier work
T-cells = assay: T-cell subsets in spleen and bone marrow of treated mice; format: in vivo, mouse; conditions: 5 μg/kg/day daily for 5 days; 12-week-old mice
Text: This is likely due to its strong immunosuppressive actions, including a severe weakening of the humoral/acquired immune system. Our proposed approach uses CB2 agonists that have immunomodulatory roles. On one hand, OGP strongly suppresses the innate immune system, exemplified here as inhibition of cytokine expression by activated macrophages (FIG. 6), and suppression of xylene-induced ear edema (FIG. 7). On the other hand, OGP has no suppressive effects on the adaptive/acquired system, exemplified here by the unaffected number of T cell subsets in mice treated with 5aa-OGP (FIG. 7). 12-week-old mice were injected with 5 μg/kg/day 5aa-OGP, 3 mg/kg/day HU910, or with a vehicle control daily for 5 days. The spleen and bone marrow (BM) were analyzed.

Compound: C=C1CC/C=C(\C)CC[C@@H]2[C@@H]1CC2(C)C [BCP, β-caryophyllene]
- disease progression (MSS), compound alone (LPS-injected mice): slight beneficial effect
- survival (MSS<3), compound alone (LPS-injected mice): no significant effect

Compound: C[C@]12CC[C@H](O)CC1=CC[C@@H]1[C@@H]2CC[C@]2(C)C(=O)CC[C@@H]12 [DHEA, Dehydroepiandrosterone]
- TNF-α release (polymicrobial sepsis): reduction
- activity of T-cellular immunity (polymicrobial sepsis): improved activity
- survival in septic challenge (polymicrobial sepsis): increased survival

Compound: CCCCCCC(C)(C)c1cc(O)c2c(c1)OC(C)(C)[C@@H]1CC=C(C(=O)O)C[C@@H]21 [Lenabasum]
- physician-assessed and patient-reported efficacy outcomes [1]: improvement

Compound: CC(=O)[C@H]1CC[C@H]2[C@@H]3CC=C4C[C@@H](O)CC[C@]4(C)[C@H]3CC[C@]12C [Pregnenolone, pregn-5-en-3β-ol-20-one]
- disease progression (MSS), compound alone (LPS-injected mice): no significant effect
- survival (MSS<3), compound alone (LPS-injected mice): no significant effect

Compound: C[C@@H]1C[C@H]2[C@@H]3CCC4=CC(=O)C=C[C@]4(C)[C@@]3(F)[C@@H](O)C[C@]2(C)[C@@]1(O)C(=O)CO [dexamethasone]
- mortality, patients who did not require oxygen (COVID-19 patients): significantly increased mortality

Compound: CC(C)(C)[C@@H](CO)NC(=O)c1nn(-c2c[n+]([O-])ccn2)c2c1C[C@@H]1C[C@H]21 [olorinab]
- survival percentage at 0.33 mg/kg (LPS-injected mice; 0.33 mg/kg twice daily, i.p.): best survival percentage
- survival percentage at 1 mg/kg (LPS-injected mice; 1 mg/kg twice daily, i.p., p<0.05): best survival percentage
- survival of LPS treated mice, different doses (LPS-injected mice; olorinab 0.33, 1 or 5 mg/kg i.p. twice daily from 24 h before LPS): beneficial effect

Compound: YGFGG [5aa-OGP]
- effect on T-cells in spleen and bone marrow (T-cells): did not affect T-cells
